pIC50: −log10 of the molar value.
Assays:
[1] = tested on: mouse hepatocellular carcinoma lines; test: Cancer cell proliferation, MTT assay on mouse hepatocellular carcinoma lines; assay type: cell-based; settings: treated 1-3 days, dosage range 1 mM to 0.1 nM; vs untreated (DMSO)
Description: (§1) FIG. 1-26 illustrate various exemplary GPAT inhibitors that suppress cancer cell proliferation. With reference to FIG. 1-26: BCL stands for Burkitt lymphoma line, all experiments on BCL were done using trypan blue and cell counts. Cells are treated 1-3 days with dosage range 1 mM to 0.1 nM. RCC stands for renal cell carcinoma, all experiments on RCC were in vivo experiments. Tumors are treated with dosage range 0.1 mg/kg to 100 mg/kg for X days, wherein X ranges from 7 to 30 days. All experiments are done in MTT assay on mouse hepatocellular carcinoma lines that are treated 1-3 days with the dosage range from 1 mM to 0.1 nM. The bar in each of FIGS. 1-26 entitled “Untreated” refers to a sample without an exemplary GPAT inhibitor compound, diluted in DMSO solvent.

Burkitt lymphoma line = Burkitt lymphoma line proliferation, trypan blue and cell counts; assay type: cell-based; settings: treated 1-3 days, dosage range 1 mM to 0.1 nM
Description: as §1

renal cell carcinoma = test: Renal cell carcinoma (RCC) in vivo tumor experiments; parameters: species or system mice; settings: dosage range 0.1 mg/kg to 100 mg/kg for 7 to 30 days
Description: as §1
MYC RCC mice were generated by crossing FVB/N-Tg(tetO-MYC)28aBop/J mice for MYC with Tg(Ggt1-tTA) #Agoc or (GGT-tTA) for kidney specificity. MYC HCC mice were generated by crossing FVB/N-Tg(tetO-MYC)28aBop/J mice for MYC with Tg(Cebpb-tTA)5Bjd or (LAP-tTA) for liver specificity. All parental lines had undergone at least 10 generations of backcrossing. MYC RCC and MYC HCC mice were bred on doxycycline until 4 weeks of age, when doxycycline was replaced with water for at least 2 weeks for tumorigenesis depending on the experiment described in the patent. […]

diet-induced obese mice = settings: cited from earlier work
MYC-induced tumors = test: FSG67 in MYC-induced tumors, xenograft and primary mouse models; assay type: in vivo
Excerpt: We present a comprehensive overview of how the MYC oncogene controls lipogenesis to promote tumorigenesis. We find that MYC globally regulates the expression of key genes and their resulting proteins and metabolites in lipogenesis for human and murine cell lines as well as for transgenic mouse models. […] Desorption electrospray ionization mass spectrometric imaging (DESI-MSI) from tissue samples of several conditional transgenic mouse models identified in vivo metabolic changes in simple fatty acids and in complex phospholipids induced by MYC. […] Strong correlation between these in situ changes and elevation of gene expressions of cytidinediphosphate diacylglycerol pathway genes as well as fatty acid elongase genes were found. By administering FSG67, which inhibits GPAT, MYC-induced tumorigenesis was blocked, metabolic changes were suppressed, and tumors regressed in xenograft and primary mouse models.

[2] = biological target: glycerol 3-phosphate acyltransferase (GPAT); settings: read-out: IC50, inhibitor of glycerol 3-phosphate acyltransferase (GPAT); cited from earlier work

## CCCCCCCCCS(=O)(=O)Nc1ccccc1C(=O)O [BTX 100]
[1]
  cancer cell proliferation: suppresses cancer cell proliferation

## CC(C)CS(=O)(=O)Nc1ccccc1C(=O)O [BTX 106]
Burkitt lymphoma line
  Burkitt lymphoma cell proliferation: suppresses Burkitt lymphoma cell proliferation

## CCOCCS(=O)(=O)Nc1ccccc1C(=O)O [BTX 108]
[1]
  cancer cell proliferation: suppresses cancer cell proliferation

## CC(C)S(=O)(=O)Nc1ccccc1C(=O)O [BTX 205]
Renal cell carcinoma
  renal cell carcinoma cell proliferation: suppresses renal cell carcinoma cell proliferation

## CS(=O)(=O)Nc1ccccc1-c1nnn[nH]1 [BTX 281]
[1]
  cancer cell proliferation: suppresses cancer cell proliferation

## CS(=O)(=O)Nc1ccccc1C(=O)O [BTX 601]
[1]
  cancer cell proliferation: suppresses cancer cell proliferation

## CS(=O)(=O)Nc1ccccc1C#N [BTX 671]
[1]
  cancer cell proliferation: suppresses cancer cell proliferation

## CS(=O)(=O)Nc1ccccc1CO [BTX 931]
Burkitt lymphoma line
  Burkitt lymphoma cell proliferation: suppresses Burkitt lymphoma cell proliferation

## CCCCS(=O)(=O)Nc1ccccc1-c1nnn[nH]1 [BTX 982]
Burkitt lymphoma line
  Burkitt lymphoma cell proliferation: suppresses Burkitt lymphoma cell proliferation

## O=C(O)c1ccccc1NS(=O)(=O)Cc1ccccc1 [BTX 1010]
[1]
  cancer cell proliferation: suppresses cancer cell proliferation

## CCCCCCCCCS(=O)(=O)Nc1ccccc1F [BTX 1101]
[1]
  cancer cell proliferation: suppresses cancer cell proliferation

## CCCCCCCCCS(=O)(=O)Nc1ccccc1Cl [BTX 2111]
[1]
  cancer cell proliferation: suppresses cancer cell proliferation

## CCCCCCCCCS(=O)(=O)Nc1ccccc1Br [BTX 2121]
[1]
  cancer cell proliferation: suppresses cancer cell proliferation

## CCCCCCCCCS(=O)(=O)N1C(=O)OCc2ccccc21 [BTX 2191]
[1]
  cancer cell proliferation: suppresses cancer cell proliferation

## CCCCCCCCCS(=O)(=O)Nc1ccccc1S(C)(=O)=O [BTX 4171]
[1]
  cancer cell proliferation: suppresses cancer cell proliferation

## CCCCCCCCCS(=O)(=O)Nc1ccccc1S(N)(=O)=O [BTX 8151]
Burkitt lymphoma line
  Burkitt lymphoma cell proliferation: suppresses Burkitt lymphoma cell proliferation

## CCCCCCCCCS(=O)(=O)Nc1ccccc1C(=O)NS(=O)(=O)C(F)(F)F [BTX 9141]
Burkitt lymphoma line
  Burkitt lymphoma cell proliferation: suppresses Burkitt lymphoma cell proliferation

## CCCCCCCCCNS(=O)(=O)c1ccccc1C(=O)O [BTX 9161]
[1]
  cancer cell proliferation: suppresses cancer cell proliferation

## CCCCCCCCCN1C(=N)c2ccccc2S1(=O)=O [BTX 19102]
[1]
  cancer cell proliferation: suppresses cancer cell proliferation

## CCCCCCCCCS(=O)(=O)Nc1ccccc1CO [BTX 83009]
[1]
  cancer cell proliferation: suppresses cancer cell proliferation

## NC1=NS(=O)(=O)c2ccccc21 [BTX 291002]
[1]
  cancer cell proliferation: suppresses cancer cell proliferation

## N#Cc1ccccc1S(N)(=O)=O [BTX 491001]
[1]
  cancer cell proliferation: suppresses cancer cell proliferation

## CCCCCCCCCS(=O)(=O)Nc1ccccc1C(=O)O [FSG67, 2-(Nonylsulfonamido)benzoic acid]
diet-induced obese mice
  body weight and adiposity: decrease body weight and adiposity
  energy utilization as fatty acid oxidation: enhance energy utilization as fatty acid oxidation
  food intake: reduce food intake
  hepatic steatosis: reverse hepatic steatosis
  insulin sensitivity: enhance insulin sensitivity
MYC-induced tumors
  MYC-induced tumorigenesis: blocked
  metabolic changes: suppressed
  tumors (regression): regressed
[2]
  pIC50: 4.62
